Here are results for 16 compounds from patent US20120129842A1, “BISTHIAZOLE INHIBITORS OF PRO-MATRIX METALLOPROTEINASE ACTIVATION” (priority 2010, published 2012).

The target in assay [1] is T1, full-length proMMP9(1-707) (SEQ ID NO:1) (Homo sapiens, UniProt P14780, R574P).
T1 construct: made in house; host or cells: HEK293 (proMMP9, secreted); E. coli (MMP3)
Description: proMMP9/MMP3 P126 Activation Assay. The assay is classed as biochemical. The note with it: 20 nM proMMP9, 20 nM MMP3, 80 min 37° C. As to the method: The reaction volume was 50 μL. […] Reactivity of residual MMP3 towards P-126 substrate was minimal under these conditions.

For assay [2], the target named is proMMP13(1-268) (SEQ ID NO:7) (Homo sapiens, UniProt P45452). Description: ThermoFluor binding assay with proMMP13(1-268). The note with it: pH 7.0. Also noted: 6xHis (C); made in house. As to the method: The ThermoFluor® (TF) assay is a 384-well plate-based binding assay that measures thermal stability of proteins (Biomol Screen 2001, 6, 429-40; Biochemistry 2005, 44, 5258-66). The experiments were carried out using instruments available from Johnson & Johnson Pharmaceutical Research & Development, LLC. TF dye used in all experiments was […] (1,8-ANS) (Invitrogen: A-47).
Compounds were arranged in a pre-dispensed plate (Greiner Bio-one: 781280), wherein compounds were serially diluted in 100% DMSO across 11 columns within a series. Columns 12 and 24 were used as DMSO reference and contained no compound. For multiple compound concentration-response experiments, the compound aliquots ([…]) were robotically predispensed directly into black 384-well polypropylene PCR microplates (Abgene: TF-0384/k) using a Cartesian Hummingbird liquid handler (DigiLab, Holliston, Mass.). Following compound dispense, protein and dye solutions were added to achieve the final assay volume of 3 μL. The assay solutions were overlayed with 1 μL of silicone oil (Fluka, type DC 200: 85411) to prevent evaporation.
Assay plates were robotically loaded onto a thermostatically controlled PCR-type thermal block and then heated from 40 to 90° C. at a ramp-rate of 1° C./min for all experiments. Fluorescence was measured by continuous illumination with UV light (Hamamatsu LC6) supplied via fiber optics and filtered through a band-pass filter (380-400 nm; >6 OD cutoff). Fluorescence emission of the entire 384-well plate was detected by measuring light intensity using a CCD camera (Sensys, Roper Scientific) filtered to detect 500±25 nm, resulting in simultaneous and independent readings of all 384 wells. A single image with 20-sec exposure time was collected at each temperature, and the sum of the pixel intensity in a given area of the assay plate was recorded vs temperature and fit to standard equations to yield the Tm (J Biomol Screen 2001, 6, 429-40).
Thermodynamic parameters necessary for fitting compound binding for each proMMP were estimated by differential scanning calorimetry (DSC) and from ThermoFluor® data. The heat capacity of unfolding for each protein was estimated from the molecular weight and from ThermoFluor® dosing data.
The proMMP13(1-268) (SEQ ID NO:7) protein sample preparations included a desalting buffer exchange step via a PD-10 gravity column (GE Healthcare). The desalting buffer exchange was performed prior to diluting the protein to the final assay concentration of 3.5 μM. The concentration of proMMP13(1-268) (SEQ ID NO:7) was estimated spectrophotometrically based on a calculated extinction coefficient of ε280=37000 M^−1cm^−1, a calculated molecular weight of 30.8 kDa, and calculated pI of 5.33. ThermoFluor® reference conditions were defined as follows: 100 μg/mL proMMP13(1-268) (SEQ ID NO:7), 25 μM 1,8-ANS, pH 7.0 Buffer (50 mM HEPES pH 7.0, 100 mM NaCl, 0.001% Tween-20, 2.5 mM MgCl2, 300 μM CaCl2). The thermodynamic parameters for proMMP13(1-268) (SEQ ID NO:7) are as follows: Tm (° C.)=67 (+/−0.1), ΔUH(Tm) (cal mol^−1)=107000(+/−5000), ΔUS(Tm) (cal mol^−1 K^−1)=318, ΔUCp (cal mol^−1 K^−1)=2600.

The target in assay [3] is T2, proMMP9(67-444;ΔFnII) (SEQ ID NO:5) (Homo sapiens, UniProt P14780, DEL216-390).
T2 construct: start methionine (N); made in house; host or cells: E. coli BL21(DE3) RIL
T2 sequence (P14780 with tags, fused parts or gaps DEL216-390): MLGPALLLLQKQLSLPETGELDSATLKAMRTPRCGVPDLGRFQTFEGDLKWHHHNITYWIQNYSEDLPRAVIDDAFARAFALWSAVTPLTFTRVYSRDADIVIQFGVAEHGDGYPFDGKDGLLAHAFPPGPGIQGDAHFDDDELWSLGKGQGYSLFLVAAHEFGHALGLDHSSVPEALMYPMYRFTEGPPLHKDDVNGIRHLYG
Description: ThermoFluor binding assay with proMMP9(67-444;ΔFnII). The following applies: pH 7.0. The gist of the method:
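Thermal shift binding with 3.5 μM proMMP9(67-444;ΔFnII) and 50 μM 1,8-ANS in 50 mM HEPES pH 7.0, 100 mM NaCl, 2.5 mM MgCl2, 300 μM CaCl2, 0.001% Tween-20, with serially diluted compound. Heated 40 to 90° C at 1° C/min; fluorescence-derived Tm fitted using DSC/ThermoFluor thermodynamic parameters.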

Assay [4] has as its target T3, proMMP9(20-445;ΔFnII) (SEQ ID NO:6) (Homo sapiens, UniProt P14780, DEL216-390).
T3 construct: start methionine (N); made in house; host or cells: E. coli BL21(DE3) RIL
T3 sequence (P14780 with tags, fused parts or gaps DEL216-390): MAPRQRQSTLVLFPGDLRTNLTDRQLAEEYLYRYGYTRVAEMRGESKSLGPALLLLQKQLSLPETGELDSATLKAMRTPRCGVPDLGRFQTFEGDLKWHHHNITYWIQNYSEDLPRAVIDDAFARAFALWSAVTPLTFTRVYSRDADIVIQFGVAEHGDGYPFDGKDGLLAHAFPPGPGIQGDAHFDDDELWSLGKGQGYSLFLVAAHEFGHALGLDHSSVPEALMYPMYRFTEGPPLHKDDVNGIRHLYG
Kind of assay: ThermoFluor binding assay with proMMP9(20-445;ΔFnII). The following applies: pH 7.0. The gist of the method:
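proMMP9(20-445;ΔFnII) at 2.8 μM with 50 μM 1,8-ANS in 50 mM HEPES pH 7.0, 100 mM NaCl, 0.001% Tween-20, 2.5 mM MgCl2, 300 μM CaCl2; compounds serially diluted in DMSO. Heated 40–90 °C at 1 °C/min, fluorescence read at 500±25 nm. Tm fit by standard equations; binding fit using DSC/TF-derived thermodynamic parameters.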
(In general: Differential scanning fluorimetry follows unfolding on heating by fluorescence.)

pIC50, pKd: −log10 of the molar value. Structures can show the parent of a compound that is named as a salt.

T1 sequence (P14780 20-707 R574P): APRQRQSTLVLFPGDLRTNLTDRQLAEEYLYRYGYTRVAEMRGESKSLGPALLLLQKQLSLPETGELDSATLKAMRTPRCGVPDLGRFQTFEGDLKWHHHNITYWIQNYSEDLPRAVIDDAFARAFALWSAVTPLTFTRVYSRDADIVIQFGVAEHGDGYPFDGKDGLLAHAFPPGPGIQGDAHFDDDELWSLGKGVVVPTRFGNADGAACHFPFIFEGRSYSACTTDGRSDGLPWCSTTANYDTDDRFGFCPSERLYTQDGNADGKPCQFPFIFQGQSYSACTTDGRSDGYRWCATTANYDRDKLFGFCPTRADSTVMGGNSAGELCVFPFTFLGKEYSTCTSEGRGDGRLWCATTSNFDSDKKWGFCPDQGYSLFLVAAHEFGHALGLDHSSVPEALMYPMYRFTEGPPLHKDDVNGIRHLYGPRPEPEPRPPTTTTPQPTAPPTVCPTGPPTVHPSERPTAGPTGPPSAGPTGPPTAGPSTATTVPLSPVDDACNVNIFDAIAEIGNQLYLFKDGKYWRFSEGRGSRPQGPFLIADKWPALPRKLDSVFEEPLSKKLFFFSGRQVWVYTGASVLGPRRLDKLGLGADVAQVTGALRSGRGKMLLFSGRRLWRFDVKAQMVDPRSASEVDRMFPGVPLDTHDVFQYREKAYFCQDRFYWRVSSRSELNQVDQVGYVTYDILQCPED

For the compound `Cc1nc(NC(=O)C2CCN(C)CC2)sc1-c1csc(Nc2cc(C(N)=O)ccc2OC(C)C)n1` [Example 32, 1-Methyl-piperidine-4-carboxylic acid [2-(5-carbamoyl-2-isopropoxy-phenylamino)-4′-methyl-[4,5′]bithiazolyl-2′-yl]-amide], the pIC50 in assay [1] is 6.82. In addition, the negative-log Kd (pKd) in assay [2] was 5.72; in assay [3] it was 6.60; in assay [4], 6.14.

In turn, `Cc1nc(C)c(-c2csc(Nc3cc(S(N)(=O)=O)cc4c3OCC4)n2)s1` [Example 33, 7-(2′,4′-Dimethyl-[4,5′]bithiazolyl-2-ylamino)-2,3-dihydro-benzofuran-5-sulfonic acid amide] showed a pIC50 in assay [1] of 5.14. Besides, the negative-log Kd (pKd) in assay [2] is 5.54; in assay [3] it was less than 4.02; in assay [4], 4.89.

Consider `COc1c(F)cc(C(N)=O)cc1Nc1nc(-c2sc(C)nc2C)cs1` [Example 34, 3-(2′,4′-Dimethyl-[4,5′]bithiazolyl-2-ylamino)-5-fluoro-4-methoxy-benzamide], for which the pIC50 in assay [1] is 5.05. Also, the negative logarithm of the Kd (pKd) in assay [2] was 4.55; in assay [3], 4.92; in assay [4], 5.11.

In the case of `COc1cc(C)c(C(N)=O)cc1Nc1nc(-c2sc(C)nc2C)cs1` [Example 36, 5-(2′,4′-Dimethyl-[4,5′]bithiazolyl-2-ylamino)-4-methoxy-2-methyl-benzamide.TFA], the negative logarithm of the IC50 (pIC50) in assay [1] is 6.17. Besides, the results for the pKd in assay [2], in assay [3] and in assay [4] were 4.96, 4.57 and 6.07, respectively.

In assay [1], `COc1ccc(C#N)cc1Nc1nc(-c2sc(C)nc2C)cs1` [Example 39, 3-(2′,4′-Dimethyl-[4,5′]bithiazolyl-2-ylamino)-4-methoxy-benzonitrile.TFA] gave a negative logarithm of the IC50 (pIC50) of 6.12. Besides, the negative logarithm of the Kd (pKd) in assay [2] is less than 4.02; in assay [3] it was 5.85; in assay [4], 5.96.

Compound `COc1ccc(C#N)cc1Nc1nc(-c2sc(N)nc2C)cs1` [Example 40, 3-(2′-Amino-4′-methyl-[4,5′]bithiazolyl-2-ylamino)-4-methoxy-benzonitrile.HBr] showed a pIC50 in assay [1] of 6.05. In addition, the pKd was 5.82 in assay [2], 6.51 in assay [3] and 6.00 in assay [4].

Regarding `CC(=O)Nc1nc(C)c(-c2csc(Nc3cc(S(C)(=O)=O)ccc3OC(C)C)n2)s1` [Example 43, N-[2-(2-Isopropoxy-5-methanesulfonyl-phenylamino)-4′-methyl-[4,5]bithiazolyl-2′-yl]-acetamide.TFA], the pIC50 in assay [1] is 6.12. The pKd in assay [2] was 6.08; in assay [3] it was 6.24; in assay [4], 6.23.

As for `Cc1nc(N)sc1-c1csc(Nc2cc(S(C)(=O)=O)ccc2OC(C)C)n1` [Example 44, N^2-(2-Isopropoxy-5-methanesulfonyl-phenyl)-4′-methyl-[4,5′]bithiazolyl-2,2′-diamine.TFA], the pIC50 in assay [1] is 6.39. Also, the results for the negative-log Kd (pKd) in assay [2], in assay [3] and in assay [4] were 7.15, 6.62 and 7.14, respectively.

Consider `Cc1nc(C)c(-c2csc(Nc3cc(S(C)(=O)=O)ccc3OC(C)C)n2)s1` [Example 45, (2′,4′-Dimethyl-[4,5′]bithiazolyl-2-yl)-(2-isopropoxy-5-methanesulfonyl-phenyl)-amine.TFA], for which the pIC50 in assay [1] was 6.08. In addition, the pKd is 6.70 in assay [2], 6.01 in assay [3] and 6.62 in assay [4].

As to `CCOc1ccc(C(=O)O)cc1Nc1nc(-c2sc(N)nc2C)cs1` [Example 46, 3-(2′-Amino-4′-methyl-[4,5′]bithiazolyl-2-ylamino)-4-ethoxy-benzoic acid.HBr], in assay [1], the negative logarithm of the IC50 (pIC50) is 5.96. Also, the results for the pKd in assay [2], in assay [3] and in assay [4] were 5.26, 5.92 and 5.85, respectively.

Take `CCOc1ccc(C(=O)O)cc1Nc1nc(-c2sc(C)nc2C)cs1` [Example 47, 3-(2′,4′-Dimethyl-[4,5′]bithiazolyl-2-ylamino)-4-ethoxy-benzoic acid.HBr]: the negative-log IC50 (pIC50) in assay [1] was 6.51. The figures for the negative logarithm of the Kd (pKd) in assay [2], in assay [3] and in assay [4] were 5.62, 6.17 and 5.74, respectively.

In the case of `CCOc1ccc(C(=O)O)cc1Nc1nc(-c2sc(NC(C)=O)nc2C)cs1` [Example 48, 3-(2′-Acetylamino-4′-methyl-[4,5′]bithiazolyl-2-ylamino)-4-ethoxy-benzoic acid.HBr], in assay [1], the negative logarithm of the IC50 (pIC50) was 5.85. Moreover, the pKd in assay [2] was 4.20; in assay [3], 5.43; in assay [4], 4.64.

On to `CCS(=O)(=O)c1ccc(OC)c(Nc2nc(-c3sc(NC(C)=O)nc3C)cs2)c1` [Example 49, N-[2-(5-Ethanesulfonyl-2-methoxy-phenylamino)-4′-methyl-[4,5]bithiazolyl-2′-yl]-acetamide.TFA], for which, in assay [1], the pIC50 is 5.52. The pKd is 5.21 in assay [2], 5.60 in assay [3] and 5.39 in assay [4].

With `CCS(=O)(=O)c1ccc(OC)c(Nc2nc(-c3sc(C)nc3C)cs2)c1` [Example 50, (2′,4′-Dimethyl-[4,5′]bithiazolyl-2-yl)-(5-ethanesulfonyl-2-methoxy-phenyl)-amine.TFA], in assay [1], the pIC50 is 5.39. Moreover, the pKd in assay [2] was 5.59; in assay [3], 5.59; in assay [4], 5.89.

In assay [1], `CCS(=O)(=O)c1ccc(OC)c(Nc2nc(-c3sc(N)nc3C)cs2)c1` [Example 51, N^2-(5-Ethanesulfonyl-2-methoxy-phenyl)-4′-methyl-[4,5′]bithiazolyl-2,2′-diamine.TFA] gave a pIC50 of 5.39. Further, the pKd in assay [2] is 5.72; in assay [3], 5.52; in assay [4], 5.96.

In the case of `COc1ccc(S(N)(=O)=O)cc1Nc1nc(-c2sc(C)nc2C)cs1` [Example 54, 3-(2′,4′-Dimethyl-[4,5′]bithiazolyl-2-ylamino)-4-methoxy-benzenesulfonamide.TFA], in assay [1], the pIC50 is 5.47. For the same compound, the pKd in assay [2] was 5.70; in assay [3], 5.80; in assay [4], 6.00.

One may read the pIC50 as the IC50 on a negative log10 scale, so that one unit is a factor of ten. Read a high pIC50 as a small IC50. Usually pKd stands for the Kd on a negative log10 scale, so that one unit is a factor of ten. Read a low pKd as a high Kd.
